# Peptide text beside a SMILES is read from it.
# Test system: 3T3-L1 Adipocytes
# Assay: Free fatty acid levels in cultured mouse 3T3-L1 adipocytes, isoproterenol stimulated (Example 2)
# Format: cell-based
# Settings: test peptides 25 μM; isoproterenol 1 nM
# Method in brief: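 3T3-L1 cells differentiated 12–17 days into adipocytes, then exposed to test peptides at 25 μM final for 18–20 h, then 1 h, then 3 h with isoproterenol (1 nM) at 37 °C. Free fatty acids in the medium measured colorimetrically at 540 nm, corrected for untreated background and expressed relative to isoproterenol-only cells.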
row,SMILES,Free Fatty Acid Levels in 3T3-L1 Adipocytes Expressed as a Percent of Isoproterenol Control: Percent of Control Value
1,CC[C@H](C)[C@H](NC(=O)[C@H](Cc1ccc(O)cc1)NC(=O)CNC(=O)[C@H](CCSC)NC(=O)[C@H](CCC(=O)O)NC(=O)[C@H](CCC(N)=O)NC(=O)[C@H](Cc1c[nH]c2ccccc12)NC(=O)[C@H](CCCNC(=N)N)NC(=O)[C@H](CCSC)NC(C)=O)C(=O)N[C@@H](Cc1ccccc1)C(=O)N[C@@H](Cc1ccc(O)cc1)C(=O)N1CCC[C@H]1C(=O)N[C@@H](CCCNC(=N)N)C(=O)N[C@@H](CCCCN)C(=O)N[C@H](C)C(=O)N[C@@H](CCCNC(=N)N)C(N)=O [compound 166] (HELM PEPTIDE1{[ac].M.R.W.Q.E.M.G.Y.I.F.Y.P.R.K.[dA].R.[am]}$$$$V2.0),78.0%
2,CC[C@H](C)[C@H](NC(=O)[C@H](Cc1ccc(O)cc1)NC(=O)CNC(=O)[C@H](CCSC)NC(=O)[C@H](CCC(=O)O)NC(=O)[C@H](CCC(N)=O)NC(=O)[C@H](Cc1c[nH]c2ccccc12)NC(=O)[C@H](CCCNC(=N)N)NC(=O)[C@H](CCSC)NC(C)=O)C(=O)N[C@@H](Cc1ccccc1)C(=O)N[C@@H](Cc1ccc(O)cc1)C(=O)N1CCC[C@H]1C(=O)N[C@@H](CCCNC(=N)N)C(=O)N[C@@H](CCCCN)C(=O)N[C@@H](CC(C)C)C(=O)N[C@H](C)C(N)=O [compound 167] (HELM PEPTIDE1{[ac].M.R.W.Q.E.M.G.Y.I.F.Y.P.R.K.L.[dA].[am]}$$$$V2.0),70.9%
3,CC[C@H](C)[C@H](NC(=O)[C@H](Cc1ccc(O)cc1)NC(=O)CNC(=O)[C@H](CCSC)NC(=O)[C@H](CCC(=O)O)NC(=O)[C@H](CCC(N)=O)NC(=O)[C@H](Cc1c[nH]c2ccccc12)NC(=O)[C@H](CCCNC(=N)N)NC(=O)[C@@H](N)CCSC)C(=O)N[C@@H](Cc1ccccc1)C(=O)N[C@@H](Cc1ccc(O)cc1)C(=O)N1CCC[C@H]1C(=O)N[C@@H](CCCNC(=N)N)C(=O)N[C@@H](CCCCN)C(=O)NC(CC)(CC)C(=O)N[C@@H](CCCNC(=N)N)C(=O)O [compound 198] (HELM PEPTIDE1{M.R.W.Q.E.M.G.Y.I.F.Y.P.R.K.[CCC(CC)(N[*:1])C(=O)[*:2]].R}$$$$V2.0),69.2%
4,CC[C@H](C)[C@H](NC(=O)[C@H](Cc1ccc(O)cc1)NC(=O)CNC(=O)[C@H](CCSC)NC(=O)[C@H](CCC(=O)O)NC(=O)[C@H](CCC(N)=O)NC(=O)[C@H](Cc1c[nH]c2ccccc12)NC(=O)[C@H](CCCNC(=N)N)NC(=O)[C@H](CCSC)NC(C)=O)C(=O)N[C@@H](Cc1ccccc1)C(=O)N[C@@H](Cc1ccc(O)cc1)C(=O)N1CCC[C@H]1C(=O)N[C@@H](CCCNC(=N)N)C(=O)N[C@@H](CCCCN)C(=O)NC(CC)(CC)C(=O)N[C@@H](CCCNC(=N)N)C(=O)O [compound 199] (HELM PEPTIDE1{[ac].M.R.W.Q.E.M.G.Y.I.F.Y.P.R.K.[CCC(CC)(N[*:1])C(=O)[*:2]].R}$$$$V2.0),48.0%
5,CC[C@H](C)[C@H](NC(=O)[C@H](Cc1ccc(O)cc1)NC(=O)CNC(=O)[C@H](CCSC)NC(=O)[C@H](CCC(=O)O)NC(=O)[C@H](CCC(N)=O)NC(=O)[C@H](Cc1c[nH]c2ccccc12)NC(=O)[C@H](CCCNC(=N)N)NC(=O)[C@@H](N)CCSC)C(=O)N[C@@H](Cc1ccccc1)C(=O)N[C@@H](Cc1ccc(O)cc1)C(=O)N1CCC[C@H]1C(=O)N[C@@H](CCCNC(=N)N)C(=O)N[C@@H](CCCCN)C(=O)NC(CC)(CC)C(=O)N[C@@H](CCCNC(=N)N)C(N)=O [compound 200] (HELM PEPTIDE1{M.R.W.Q.E.M.G.Y.I.F.Y.P.R.K.[CCC(CC)(N[*:1])C(=O)[*:2]].R.[am]}$$$$V2.0),80.2%
6,CC[C@H](C)[C@H](NC(=O)[C@H](Cc1ccc(O)cc1)NC(=O)CNC(=O)[C@H](CCSC)NC(=O)[C@H](CCC(=O)O)NC(=O)[C@H](CCC(N)=O)NC(=O)[C@H](Cc1c[nH]c2ccccc12)NC(=O)[C@H](CCCNC(=N)N)NC(=O)[C@H](CCSC)NC(C)=O)C(=O)N[C@@H](Cc1ccccc1)C(=O)N[C@@H](Cc1ccc(O)cc1)C(=O)N1CCC[C@H]1C(=O)N[C@@H](CCCNC(=N)N)C(=O)N[C@@H](CCCCN)C(=O)NC(CC)(CC)C(=O)N[C@@H](CCCNC(=N)N)C(N)=O [compound 201] (HELM PEPTIDE1{[ac].M.R.W.Q.E.M.G.Y.I.F.Y.P.R.K.[CCC(CC)(N[*:1])C(=O)[*:2]].R.[am]}$$$$V2.0),92.8%
7,"CC[C@H](C)[C@@H]1NC(=O)[C@H](Cc2ccc(O)cc2)NC(=O)CNC(=O)[C@@H](NC(=O)[C@H](CCC(=O)O)NC(=O)[C@H](CCC(N)=O)NC(=O)[C@H](Cc2c[nH]c3ccccc23)NC(=O)[C@H](CCCNC(=N)N)NC(=O)[C@@H](N)CCSC)CSSC[C@@H](C(=O)N[C@@H](CCCNC(=N)N)C(=O)N[C@@H](CCCCN)C(=O)N[C@@H](CC(C)C)C(=O)N[C@@H](CCCNC(=N)N)C(=O)O)NC(=O)[C@H](Cc2ccc(O)cc2)NC(=O)[C@H](Cc2ccccc2)NC1=O [compound 220] (HELM PEPTIDE1{M.R.W.Q.E.C.G.Y.I.F.Y.C.R.K.L.R}$PEPTIDE1,PEPTIDE1,6:R3-12:R3$$$V2.0)",70.5%
8,"CC[C@H](C)[C@@H]1NC(=O)[C@H](Cc2ccc(O)cc2)NC(=O)CNC(=O)[C@@H](NC(=O)[C@H](CCC(=O)O)NC(=O)[C@H](CCC(N)=O)NC(=O)[C@H](Cc2c[nH]c3ccccc23)NC(=O)[C@H](CCCNC(=N)N)NC(=O)[C@@H](N)CCSC)CCC(=O)NCCCC[C@@H](C(=O)N[C@@H](CCCNC(=N)N)C(=O)N[C@@H](CCCCN)C(=O)N[C@@H](CC(C)C)C(=O)N[C@@H](CCCNC(=N)N)C(=O)O)NC(=O)[C@H](Cc2ccc(O)cc2)NC(=O)[C@H](Cc2ccccc2)NC1=O [compound 221] (HELM PEPTIDE1{M.R.W.Q.E.E.G.Y.I.F.Y.K.R.K.L.R}$PEPTIDE1,PEPTIDE1,6:R3-12:R3$$$V2.0)",25.5%
9,"CC[C@H](C)[C@@H]1NC(=O)[C@H](Cc2ccc(O)cc2)NC(=O)CNC(=O)[C@H](CCSC)NC(=O)[C@H](CCC(=O)O)NC(=O)[C@@H](NC(=O)[C@H](Cc2c[nH]c3ccccc23)NC(=O)[C@H](CCCNC(=N)N)NC(=O)[C@@H](N)CCSC)CCC(=O)NCCCC[C@@H](C(=O)N[C@@H](CCCNC(=N)N)C(=O)N[C@@H](CCCCN)C(=O)N[C@@H](CC(C)C)C(=O)N[C@@H](CCCNC(=N)N)C(=O)O)NC(=O)[C@H](Cc2ccc(O)cc2)NC(=O)[C@H](Cc2ccccc2)NC1=O [compound 223] (HELM PEPTIDE1{M.R.W.E.E.M.G.Y.I.F.Y.K.R.K.L.R}$PEPTIDE1,PEPTIDE1,4:R3-12:R3$$$V2.0)",64.6%
10,"CC[C@H](C)[C@@H]1NC(=O)[C@H](Cc2ccc(O)cc2)NC(=O)CNC(=O)[C@H](CCSC)NC(=O)[C@@H](NC(=O)[C@H](CCC(N)=O)NC(=O)[C@H](Cc2c[nH]c3ccccc23)NC(=O)[C@H](CCCNC(=N)N)NC(=O)[C@@H](N)CCSC)CCC(=O)NCCCC[C@@H](C(=O)N[C@@H](CCCNC(=N)N)C(=O)N[C@@H](CCCCN)C(=O)N[C@@H](CC(C)C)C(=O)N[C@@H](CCCNC(=N)N)C(=O)O)NC(=O)[C@H](Cc2ccc(O)cc2)NC(=O)[C@H](Cc2ccccc2)NC1=O [compound 224] (HELM PEPTIDE1{M.R.W.Q.E.M.G.Y.I.F.Y.K.R.K.L.R}$PEPTIDE1,PEPTIDE1,5:R3-12:R3$$$V2.0)",56.2%
